Test results as given in PMC9888480, “Carboranyl-1,8-naphthalimide intercalators induce lysosomal membrane permeabilization and ferroptosis in cancer cell lines” (Journal of Enzyme Inhibition and Medicinal Chemistry, 2023).

Legend:
[1] = test system: ct-DNA; experiment: UV–vis spectra titration with ct-DNA (binding constant Kb); set-up: species or system calf; details: for bathochromic effect: UV–vis, addition of 1.25–15 µM ct-DNA to 10 µM compound; for Kb compared to that of mitonafide: mitonafide Kb 2.54 × 10^5
Experimental: The measurements were performed by adding aliquots of DMSO stock solution of the tested compounds to the buffer solution (pH 7.4, 20 mM, 50 mM NaCl, Tris–HCl buffer, DMSO content of the final solutions = 0.54–0.65%) to the final concentration 10 µM. The tested compounds were incubated for 5 min, with increasing concentrations ranging from 0 to 15 µM of ct-DNA at 37 °C. Then, the UV–vis absorption spectra between 300 and 500 nm were recorded using a GBC Cintra10 UV–VIS spectrometer equipped with a GBC Thermocell Peltier Power Supply with the use of a 1-cm-path-length cell. The binding constant was calculated according to the following equation[70]: A0/A−A0= εG/εH−G−εG+ εG/εH−G−εG × 1/Kb[DNA] where Kb is the binding constant; A0 and a are absorbances of the free tested compound and the apparent one; εG and εH–G are their coefficient, respectively; [DNA] is the concentration of DNA in base pairs. The slope to intercept ratio of the plot between A0/A − A0 and 1/[DNA] yielded the binding constant.

[2] = test system: ct-DNA; experiment: Circular dichroism (CD) measurements of ct-DNA; assay type: binding, calf; details: increasing concentration of conjugate, r = 0.1–0.5, cacodylate buffer pH 7.0
Experimental: The measurements were performed by adding aliquots of DMSO stock solution of the tested compounds to the buffer solution (pH 7.0, 20 mM, cacodylate buffer, DMSO content of the final solutions = 0.22–1.30%). Changes in the CD spectrum of ct-DNA upon the addition of compound were measured at different molar ratios r = [compound]/[ct-DNA]. CD spectra were recorded on a JASCO J-815 CD spectrometer with a JASCO PFD-425S Peltier thermostated cell holder (JASCO, Tokyo, Japan) by using a square quartz cuvette of path length 0.5 cm (0.5 ml) in the 230–400 nm region. The CD profiles reported were an average of three successive scans with a scan time of 200 nm per minute and an appropriately corrected baseline. Temperature was maintained at 20 °C during the experiment.

[3] = test system: MRC-5; experiment: In vitro cytotoxic activity, MTT assay; assay type: cell-based, human; details: concentration required to inhibit cell growth by 50%
Description: The in vitro cytotoxic activity of the obtained carborane-1,8-naphthalimide conjugates was investigated by examining their cytotoxic effects using the MTT (3–(4,5-dimethylthiazol-2-yl)-2,5-diphenyltetrazolium bromide) dye assay[38]^,[39] against the human cancer cell line HepG2 established from hepatocellular carcinoma (for compounds 12–19 and 30–37) and against human lung fibroblasts (MRC-5) (for compounds 34–37). The IC50 values—the drug concentration (µM) required to inhibit cell growth by 50%—determined for the synthesised compounds are summarised in Table 2.
The cytotoxic properties of the synthesised compounds were evaluated using the human hepatocellular carcinoma cell line (HepG2) and human lung fibroblasts (MRC-5). The HepG2 and MRC-5 cell lines were purchased from American Type Culture Collection (ATCC, Manassas, VA, USA). The HepG2 cells were propagated in Eagle’s minimal essential medium (EMEM, ATCC, Manassas, VA, USA), supplemented with 10% inactivated foetal bovine serum (FBS, Life Technologies, Warsaw, Poland) and 100 units/ml penicillin G with […] streptomycin (Life Technologies, Warsaw, Poland). The cells were incubated at 37 °C in a humidified atmosphere containing 5% CO2. Upon reaching 80–90% confluency, the cells were harvested with 0.25% trypsin in 1 mM EDTA (Life Technologies, Warsaw, Poland) and transferred to 96-well microplates at 2 × 10^4 cells/well. After overnight incubation of cells at 37 °C in a humidified atmosphere containing 5% CO2, the culture medium was removed and replaced with a freshly prepared solution of compounds in the culture medium or medium itself as the control group. The stock solutions of each compound were prepared in DMSO at a concentration of 100 mM and were diluted with the growth medium supplemented with 10% FBS to ensure drug dissolution to obtain concentrations ranging from 0.1 to 1000 µM. Cytotoxicity was evaluated using the MTT assay. After incubation with the compounds, the cells were treated with MTT dye solution (5 mg/ml) for 2 h and lysed with a solvent solution containing DMF (45 ml), sodium dodecylsulfate (13.5 g), and distilled water (55 ml). After overnight incubation at 37 °C, optical density at 550 nm, with a reference wavelength of 670 nm, was measured in an ELISA reader (VarioskanLux, Thermo Scientific, Waltham, MA, USA). All determinations were carried out in triplicate. Results were calculated as the percentage of control group viability. The IC50 values of the compounds were calculated in an Excel add-in ED50V10.

[4] = test system: HepG2 cells; experiment: Ca2+ homeostasis determination (Rhod-2 AM); assay type: cell-based, human; details: HepG2, 24 h, total IC50 concentration
Experimental: Ca^2+ released was determined by the selective dye Calcium Rhod-2 AM (Thermo Fisher Scientific), which binds specifically to Ca^2+ ions that are related to an increase in dihydrorhod-2 AM concentration, and thus, an enhancement in fluorescence intensity occurred. After treatment, the cells were detached with trypsin (Corning®), washed with 1 ml of DPBS (Capricorn), and then resuspended in EMEM with 2.5 µM Rhod-2 AM. All the samples were incubated for 15 min at 37 °C in the dark, and fluorescence intensity was then analysed at an excitation/emission wavelength of 552/581 nm. The cells were analysed after incubation with the dye with excitation at 488 nm using a FACSCalibur flow cytometer (Becton Dickinson), and the data were analysed using the FlowJo software (Becton Dickinson).

Substance: 4-[(6-[(1,2-Dicarba-closo-dodecaborane-1-yl)ethylamino]hexyl)amino]-3-nitro-N-[2-(N-pyrrolidinyl)ethyl]-1,8-naphthalimide [Compound 36]
- bathochromic effect [1]: 7 nm
- Kb compared to that of mitonafide [1]: similar
- change in the CD spectra of ct-DNA [2]: disturbed
- IC50 [3]: 2.33 ± 0.02 µM
- Ca2+ accumulation compared to control [4]: slightest effect

Substance: 4-[(6-[(1,2-Dicarba-closo-dodecaborane-1-yl)ethylamino]hexyl)amino]-N-[2-(dimethylamino)ethyl]-3-nitro-1,8-naphthalimide [Compound 34]
- bathochromic effect [1]: 9 nm
- change in the CD spectra of ct-DNA [2]: remarkably disturbed
- IC50 [3]: 2.13 ± 0.23 µM

Substance: 4-[(6-[(1,7-Dicarba-closo-dodecaborane-1-yl)ethylamino]hexyl)amino]-3-nitro-N-[2-(N-pyrrolidinyl)ethyl]-1,8-naphthalimide [Compound 37]
- bathochromic effect [1]: 8 nm
- change in the CD spectra of ct-DNA [2]: remarkably disturbed
- IC50 [3]: 2.26 ± 0.05 µM

Substance: 4-[(6-[(1,7-Dicarba-closo-dodecaborane-1-yl)ethylamino]hexyl)amino]-N-[2-(dimethylamino)ethyl]-3-nitro-1,8-naphthalimide [Compound 35]
- bathochromic effect [1]: 10 nm
- Kb compared to that of mitonafide [1]: approximately 1.5 fold
- change in the CD spectra of ct-DNA [2]: remarkably disturbed
- IC50 [3]: 2.14 ± 0.36 µM
- Ca2+ accumulation compared to control [4]: more than threefold
